Data as given in US6809181B2, “Human beta-defensin-3 (HBD-3), a highly cationic beta-defensin antimicrobial peptide” (University of Iowa Research Foundation, priority 2000, dated 2004).
In brackets after ≈: the same amount, converted by molar mass.

Tests used:
[1] = system: Mycoplasma hominis; settings: n=28, r140, cited from earlier work
[2] = system: Staphylococcus aureus; settings: n=100, r142, cited from earlier work
[3] = system: Ureaplasma urealyticum; settings: n=19, r143, cited from earlier work
[4] = system: Mycoplasma pneumoniae; settings: n=11, r141, cited from earlier work
[5] = system: HBD-3 mRNA expression in cultured gingival keratinocytes; test: RT-PCR of HBD-3 mRNA in cultured gingival keratinocytes; format: cell-based, human; settings: 100 ng/ml IL-1β for 24 h
[6] = system: HBD-3 mRNA expression in fetal lung explants; test: RT-PCR of HBD-3 mRNA in fetal lung explants; format: cell-based, human; settings: 100 ng/ml IL-1β for 24 h

Molecule | Range [1] | MIC50 ([1]; unit assumed) | MIC90 ([1]; unit assumed) | Range [2] | MIC50 ([2]; unit assumed) | MIC90 ([2]; unit assumed) | Range [3] | MIC50 ([3]; unit assumed) | MIC90 ([3]; unit assumed) | Range [4] | MIC50 ([4]; unit assumed) | MIC90 ([4]; unit assumed) | HBD-3 mRNA expression [5] | HBD-3 mRNA expression [6]
CCC[C@@H]1C[C@@H](C(=O)N[C@@H]([C@H]2O[C@H](SC)[C@H](O)[C@@H](O)[C@H]2O)[C@@H](C)O)N(C)C1 [LINCOMYCIN, lincomycin] | 0.5-16 | 2 µg/mL (≈ 4.92 µM) | 4 µg/mL (≈ 9.84 µM) | 0.5-512 | 1 µg/mL (≈ 2.46 µM) | 1 µg/mL (≈ 2.46 µM) | 64-128 | 128 µg/mL (≈ 315 µM) | 128 µg/mL (≈ 315 µM) | 2-32 | 8 µg/mL (≈ 19.7 µM) | 32 µg/mL (≈ 78.7 µM) |  | 
IL-1β: IL-1β (R & D Systems), pro-inflammatory stimulus used at 100 ng/ml to induce HBD-3 mRNA expression |  |  |  |  |  |  |  |  |  |  |  |  | increased markedly | increased markedly
